Our source for the EC50 and Kd values is patent US10947252B2, “Inhibitors of KEAP1-Nrf2 protein-protein interaction” (Janssen Pharmaceutica NV, priority 2018, dated 2021).

By EC50 is commonly meant the midpoint of the concentration-response curve. The term Kd denotes the equilibrium constant for the complex coming apart.

The subject of experiment [1] is Glo-Response ARE-luc2P HEK293 cell line. Description: ARE luciferase reporter cell-based assay.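 Note: luciferase signal tracks Nrf2 activation of the ARE once compounds disrupt KEAP1-Nrf2 binding, read with One-Glo reagent, DMSO serving as low control.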 Particulars: Homo sapiens, HEK293, 24 h, average of results obtained.
In experiment [2] the target is Kelch domain of human KEAP1 (321-624 aa) (Homo sapiens (Human), UniProt Q14145). As to the kind of experiment: KEAP1 KELCH ThermoFluor binding assay.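 Note: Ligand-induced melting temperature shift of E. coli-expressed KEAP1 Kelch protein, Kd estimated from concentration-response curves of ΔTm.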 Conditions: KEAP Kelch […], 1,8-ANS, pH 7.0, average of results obtained, read-out: Tf Kd.
Chain of Kelch domain of human KEAP1 (321-624 aa) (Q14145 321-624): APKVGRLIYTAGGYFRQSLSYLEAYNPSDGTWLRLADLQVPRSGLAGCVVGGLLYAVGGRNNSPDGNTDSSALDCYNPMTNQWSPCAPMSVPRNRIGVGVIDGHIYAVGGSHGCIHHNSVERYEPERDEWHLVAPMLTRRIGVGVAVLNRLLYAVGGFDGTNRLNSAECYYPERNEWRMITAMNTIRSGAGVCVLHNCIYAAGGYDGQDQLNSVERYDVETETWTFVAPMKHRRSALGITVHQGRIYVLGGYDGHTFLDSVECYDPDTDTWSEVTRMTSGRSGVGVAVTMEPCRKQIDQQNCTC

Compound `Cc1ccc(C(CC(=O)O)c2ccn3c(C(F)F)nnc3c2C)cc1CN1C[C@H]2CCCN2c2ncccc2S1(=O)=O` (mixture of isomers) [Example 449, 3-(3-(Difluoromethyl)-8-methyl-[1,2,4]triazolo[4,3-a]pyridin-7-yl)-3-(3-(((R)-5,5-dioxido-7a,8,9,10-tetrahydropyrido[2,3-f]pyrrolo[2,1-d][1,2,5]thiadiazepin-6(7H)-yl)methyl)-4-methylphenyl)propanoic Acid] came in with an EC50 in experiment [1] of 47.6 nM. Also, in experiment [2], the Kd was less than 1 nM.
On the same counts, the results for `Cc1ccc([C@H](c2ccn3c(C(F)F)nnc3c2C)C(C)(C)C(=O)O)cc1CN1CC2(CCOCC2)Oc2nc(OCCN3CCOCC3)ccc2S1(=O)=O` (single isomer, unassigned) [Example 580, (*R)-3-(3-(Difluoromethyl)-8-methyl-[1,2,4]triazolo[4,3-a]pyridin-7-yl)-2,2-dimethyl-3-(4-methyl-3-((7′-(2-morpholinoethoxy)-1′,1′-dioxido-2,3,5,6-tetrahydrospiro[pyran-4,4′-pyrido[2,3-b][1,4,5]oxathiazepin]-2′(3′H)-yl)methyl)phenyl)propanoic Acid] are 3240 nM and 1640 nM.
On the same counts, the results for `Cc1ccc([C@H](CC(=O)O)c2ccn3c(C(F)(F)F)nnc3c2C)cc1CN1CC2(CC2)Oc2ncc(F)cc2S1(=O)=O` (single isomer, unassigned) [Example 311, (*S)-3-(3-((8′-Fluoro-1′,1′-dioxidospiro[cyclopropane-1,4′-pyrido[2,3-b][1,4,5]oxathiazepin]-2′(3′H)-yl)methyl)-4-methylphenyl)-3-(8-methyl-3-(trifluoromethyl)-[1,2,4]triazolo[4,3-a]pyridin-7-yl)propanoic Acid] are 9.3 nM and less than 1 nM.
On to `Cc1ccc([C@H](CC(=O)O)c2ccn3c(C(F)(F)F)nnc3c2C)cc1CN1CC2(COC2)Oc2ncccc2S1(=O)=O` (single isomer, unassigned) [Example 260, (*S)-3-(3-((1′,1′-Dioxidospiro[oxetane-3,4′-pyrido[2,3-b][1,4,5]oxathiazepin]-2′(3′H)-yl)methyl)-4-methylphenyl)-3-(8-methyl-3-(trifluoromethyl)-[1,2,4]triazolo[4,3-a]pyridin-7-yl)propanoic Acid], for which, in experiment [1], the EC50 was 101 nM. Moreover, in experiment [2], the Kd was less than 1 nM.
In turn, `Cc1cnc2c(c1)S(=O)(=O)N(Cc1cc([C@H](c3ccn4c(C(F)F)nnc4c3C)C(C)(C)C(=O)O)ncc1C)CC1(CC1)O2` (single isomer, unassigned) [Example 333, (*R)-3-(3-(difluoromethyl)-8-methyl-[1,2,4]triazolo[4,3-a]pyridin-7-yl)-2,2-dimethyl-3-(5-methyl-4-((8′-methyl-1′,1′-dioxidospiro[cyclopropane-1,4′-pyrido[2,3-b][1,4,5]oxathiazepin]-2′(3′H)-yl)methyl)pyridin-2-yl)propanoic Acid] gave an EC50 in experiment [1] of 3980 nM. Also, the Kd in experiment [2] worked out at 1720 nM.
On the same counts, the results for `Cc1cnc2c(c1)S(=O)(=O)N(Cc1cc([C@H](c3ccn4c(C(F)(F)F)nnc4c3C)C(C)(C)C(=O)O)ccc1C)CC1(CCOCC1)O2` (single isomer, unassigned) [Example 19, (*R)-2,2-Dimethyl-3-(4-methyl-3-((8′-methyl-1′,1′-dioxido-2,3,5,6-tetrahydrospiro[pyran-4,4′-pyrido[2,3-b][1,4,5]oxathiazepin]-2′(3′H)-yl)methyl)phenyl)-3-(8-methyl-3-(trifluoromethyl)-[1,2,4]triazolo[4,3-a]pyridin-7-yl)propanoic Acid] are 789 nM and 1280 nM.
